Results: PubChem BioAssay (NCI)
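Briefly, cells in 96-well plates were exposed to five compound concentrations for 48 h, and endpoints were estimated by linear interpolation. Definition used: TGI = concentration required for complete inhibition of growth.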

Columns and labels:
Assay in all cases: NCI tumour cell line growth inhibition, 48 h
[1] = test system: NCI/ADR-RES ovarian
[2] = test system: K-562 leukemia
[3] = test system: SK-OV-3 ovarian
[4] = test system: HS 578T breast
[5] = test system: T-47D breast
[6] = test system: OVCAR-5 ovarian
[7] = test system: M14 melanoma
[8] = test system: TK-10 renal
[9] = test system: UACC-62 melanoma
[10] = test system: HT29 colon
[11] = test system: COLO 205 colon
[12] = test system: MALME-3M melanoma
[13] = test system: SK-MEL-5 melanoma
[14] = test system: HCT-15 colon
[15] = test system: HCT-116 colon
[16] = test system: SW-620 colon
[17] = test system: ACHN renal
[18] = test system: HOP-62 NSCLC
[19] = test system: IGROV1 ovarian
[20] = test system: MDA-MB-231 breast
[21] = test system: U251 CNS
[22] = test system: SK-MEL-28 melanoma
[23] = test system: A498 renal
[24] = test system: CCRF-CEM leukemia
[25] = test system: SNB-19 CNS
[26] = test system: MDA-MB-435
[27] = test system: SF-268 CNS
[28] = test system: RXF 393 renal
[29] = test system: UACC-257 melanoma
[30] = test system: OVCAR-3 ovarian
[31] = test system: SN12C renal
[32] = test system: NCI-H522 lung
[33] = test system: SNB-75 CNS
[34] = test system: PC-3 prostate
[35] = test system: NCI-H23 lung
[36] = test system: A549 NSCLC
[37] = test system: SR leukemia
[38] = test system: NCI-H226 lung
[39] = test system: NCI-H460 lung
[40] = test system: MOLT-4 leukemia
[41] = test system: DU-145 prostate
[42] = test system: MCF7 breast
[43] = test system: KM12 colon
[44] = test system: HCC-2998 colon
[45] = test system: EKVX NSCLC
[46] = test system: SF-539 CNS
[47] = test system: BT-549 breast
[48] = test system: MDA-N
[49] = test system: UO-31 renal
[50] = test system: CAKI-1 renal
[51] = test system: HL-60(TB) leukemia
[52] = test system: HOP-92 NSCLC
[53] = test system: OVCAR-8 ovarian
[54] = test system: LOX IMVI melanoma
[55] = test system: 786-0 renal
[56] = test system: RPMI-8226 leukemia
[57] = test system: SF-295 CNS
[58] = test system: OVCAR-4 ovarian
[59] = test system: SK-MEL-2 melanoma
[60] = test system: KM20L2 colon
[61] = test system: SNB-78 CNS
[62] = test system: DMS 273 small cell lung
[63] = test system: M19-MEL melanoma
[64] = test system: LXFL 529 NSCLC
[65] = test system: HOP-18 NSCLC

O=C1/C(=C/c2cccnc2)C(n2cccc2)c2c(Br)sc(Br)c21 (stereo not drawn)
TGI [1]: > 52 µM
TGI [2]: 7.39 µM
TGI [3]: 29.3 µM
TGI [4]: 9.66 µM
TGI [5]: 6.25 µM
TGI [6]: 31.9 µM
TGI [7]: 4.85 µM
TGI [8]: 4.28 µM
TGI [9]: 4.49 µM
TGI [10]: 11.1 µM
TGI [11]: 21.6 µM
TGI [12]: 10.7 µM
TGI [13]: 21.5 µM
TGI [14]: 4.96 µM
TGI [15]: 4.97 µM
TGI [16]: > 21.9 µM
TGI [17]: 7.69 µM
TGI [18]: 7.36 µM
TGI [19]: 3.38 µM
TGI [20]: 3.3 µM
TGI [21]: 3.08 µM
TGI [22]: 7.31 µM
TGI [23]: 30.4 µM
TGI [24]: 10.1 µM
TGI [25]: 9.65 µM
TGI [26]: 3.42 µM
TGI [27]: 4.3 µM
TGI [28]: 4.45 µM
TGI [29]: 3.36 µM
TGI [30]: 3.31 µM
TGI [31]: 14.2 µM
TGI [32]: 12.6 µM
TGI [33]: 3.67 µM
TGI [34]: 4.86 µM
TGI [35]: 9.18 µM
TGI [36]: 32.5 µM
TGI [37]: 6.37 µM
TGI [38]: > 100 µM
TGI [39]: 18.9 µM
TGI [40]: 5.34 µM
TGI [41]: 3.53 µM
TGI [42]: 4.02 µM
TGI [43]: 8.45 µM
TGI [44]: 2.41 µM
TGI [45]: 4.1 µM
TGI [46]: 9.5 µM
TGI [47]: 37.6 µM
TGI [48]: 4.24 µM
TGI [49]: 3.43 µM
TGI [50]: 7.51 µM
TGI [51]: 5.57 µM
TGI [52]: 4.64 µM
TGI [53]: 4.81 µM
TGI [54]: 3.89 µM
TGI [55]: 6.17 µM
TGI [56]: 4.94 µM
TGI [57]: 32 µM
TGI [58]: 3.83 µM
TGI [59]: 4.63 µM

CSc1c(C(=O)Nc2ccc(Cl)cc2)c(N)nn1-c1ccccc1
TGI [1]: > 100 µM
TGI [2]: > 100 µM
TGI [3]: > 100 µM
TGI [4]: > 100 µM
TGI [5]: > 100 µM
TGI [6]: > 100 µM
TGI [7]: > 100 µM
TGI [8]: > 100 µM
TGI [9]: > 100 µM
TGI [10]: > 100 µM
TGI [11]: > 100 µM
TGI [12]: > 100 µM
TGI [13]: > 100 µM
TGI [14]: > 100 µM
TGI [15]: > 100 µM
TGI [16]: > 100 µM
TGI [17]: > 100 µM
TGI [18]: > 100 µM
TGI [19]: > 100 µM
TGI [20]: > 100 µM
TGI [21]: > 100 µM
TGI [22]: > 100 µM
TGI [23]: > 100 µM
TGI [24]: > 100 µM
TGI [25]: > 100 µM
TGI [26]: > 100 µM
TGI [27]: > 100 µM
TGI [28]: > 87.4 µM
TGI [29]: > 100 µM
TGI [30]: > 100 µM
TGI [31]: > 100 µM
TGI [32]: > 100 µM
TGI [33]: > 86.3 µM
TGI [34]: > 100 µM
TGI [35]: > 100 µM
TGI [36]: > 100 µM
TGI [37]: > 100 µM
TGI [38]: > 100 µM
TGI [39]: > 100 µM
TGI [40]: > 100 µM
TGI [41]: > 100 µM
TGI [42]: > 100 µM
TGI [43]: > 100 µM
TGI [44]: > 100 µM
TGI [45]: > 100 µM
TGI [46]: > 100 µM
TGI [47]: > 100 µM
TGI [48]: > 100 µM
TGI [49]: > 100 µM
TGI [50]: > 100 µM
TGI [51]: > 100 µM
TGI [52]: > 100 µM
TGI [53]: > 100 µM
TGI [54]: > 100 µM
TGI [55]: > 43.2 µM
TGI [56]: > 100 µM
TGI [57]: > 100 µM
TGI [58]: > 23.8 µM
TGI [59]: > 100 µM

CCOC(=O)C12CCCC1(O)N(NC(=O)c1ccccc1)C(C)=C2C(=O)OC (stereo not drawn)
TGI [2]: > 100 µM
TGI [3]: > 100 µM
TGI [6]: > 100 µM
TGI [7]: > 100 µM
TGI [8]: > 100 µM
TGI [9]: > 100 µM
TGI [10]: > 100 µM
TGI [60]: > 100 µM
TGI [11]: > 100 µM
TGI [12]: > 100 µM
TGI [14]: > 100 µM
TGI [15]: > 100 µM
TGI [16]: > 100 µM
TGI [61]: > 100 µM
TGI [17]: > 100 µM
TGI [18]: > 100 µM
TGI [19]: > 100 µM
TGI [21]: > 100 µM
TGI [62]: > 100 µM
TGI [23]: > 100 µM
TGI [24]: > 100 µM
TGI [25]: > 100 µM
TGI [27]: > 100 µM
TGI [29]: > 100 µM
TGI [63]: > 100 µM
TGI [30]: > 100 µM
TGI [31]: > 100 µM
TGI [32]: > 100 µM
TGI [64]: > 100 µM
TGI [35]: > 100 µM
TGI [36]: > 100 µM
TGI [38]: > 100 µM
TGI [39]: > 100 µM
TGI [40]: > 100 µM
TGI [43]: > 100 µM
TGI [44]: > 100 µM
TGI [45]: > 100 µM
TGI [65]: > 100 µM
TGI [46]: > 100 µM
TGI [49]: > 100 µM
TGI [50]: > 100 µM
TGI [51]: > 100 µM
TGI [52]: > 100 µM
TGI [53]: > 100 µM
TGI [54]: > 100 µM
TGI [55]: > 100 µM
TGI [56]: > 100 µM
TGI [57]: > 100 µM
TGI [58]: > 100 µM
TGI [59]: > 100 µM
